Source: article PMC10387993, “New pyrimidine-N-β-D-glucosides: synthesis, biological evaluation, and molecular docking investigations” (Turkish Journal of Chemistry, 2023)
Values after ≈ are worked out from the molar mass of the structure shown. Read-outs that look alike come from different tables or passages of the source.

Tests used:
[1] = system: S. aureus MRSA ATCC 46300; test: Microdilution MIC assay; type: cell-based; details: Staphylococcus aureus; S. aureus MRSA ATCC 46300, 24 h at 35 °C; read-out: MIC
Method in brief: (§1)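 Broth microdilution in microwells; plates incubated 24 h at 35 °C. MIC taken as the lowest concentration with no visible growth (turbidity), read by eye.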

[2] = system: S. aureus MSSA ATCC 29213; test: Microdilution MIC assay; type: cell-based; details: S. aureus MSSA ATCC 29213, 24 h at 35 °C
Method in brief: as §1

[3] = system: P. aeruginosa AGME ATCC 27853; test: Microdilution MIC assay; type: cell-based; details: Pseudomonas aeruginosa, ATCC27853; P. aeruginosa AGME ATCC 27853, 24 h at 35 °C
Method in brief: as §1

[4] = system: E. faecalis VRE ATCC 19433; test: Microdilution MIC assay; type: cell-based; details: Enterococcus faecalis; E. faecalis VRE ATCC 19433, 24 h at 35 °C
Method in brief: as §1

[5] = system: A. actinomycetemcomitans ATCC 33384; test: Microdilution MIC assay; type: cell-based; details: Aggregatibacter actinomycetemcomitans, ATCC33384; A. actinomycetemcomitans ATCC 33384, 24 h at 35 °C
Method in brief: as §1

calf thymus DNA (CT-DNA) = test: DNA binding study, UV-Visible absorption titration; details: UV-Vis titration, 25 μM compound
Excerpt: The vast majority of anticancer agents used in pharmaceutical chemistry act on functional macromolecules such as DNA and proteins. Given this well-known fact, the relationship between newly developed anticancer drug candidates and macromolecules should be studied in detail. The interaction of molecules with DNA leads to significant changes in the helical structure of DNA, which can be observed by spectrophotometric techniques. […] Also, the red or blue shift in the absorption bands of the compounds can be an indication of the stability of the compound and the DNA structure. The DNA/BSA binding properties of the new chemicals synthesized by our group were determined using a UV-Vis spectrophotometer. The interactions of these compounds with DNA were as follows. […] Kb is the binding constant related to the complex to DNA and can be calculated algebraically from the slope of the line drawn between [DNA] / (ɛa-ɛf) and [DNA]. […]
To find the interaction of the compounds with calf thymus DNA and to calculate the binding constants (Kb) UV–Visible absorption spectroscopy technique was used. […] After dissolving the calf thymus DNA fibers in Tris–HCl buffer, the purity of this solution was checked from the absorbance ratio A260/A280. […] Absorption spectra were recorded by using 1-cm-path quartz cuvettes at room temperature. […]

[6] = LDH cytotoxic activity assay, FL; type: cell-based; details: human, FL cells (normal cells)
Description: (§2) The cell lines were cultured in a cell medium (Dulbecco’s modified eagle’s or RPMI 1640) enriched with 10% (v/v) fetal bovine serum and 2% (v/v) Penicillin-Streptomycin (10,000 U/mL). First, old medium was removed out of the flask when the cells reached approximately 80% confluence. Next, cells were taken from the flasks surface using trypsin-EDTA solution and then subjected to centrifugation. Following, the cell pellet was suspended with fresh media and was inoculated into wells.
(§3) Approximately 5 × 10^3 cells in 100 μL were placed into 96-well plates as triplicates and treated with 25, 50, 75, and 100 μg/mL concentrations of test compounds at 37 °C with 5% CO2 for 24 h. LDH activity was obtained by determining absorbance at 492–630 nm using a microplate reader.

[7] = LDH cytotoxic activity assay, Hep3B; type: cell-based; details: human, Hep3B cells
Description: as §2, §3

[8] = LDH cytotoxic activity assay, MCF7; type: cell-based; details: human, MCF7 cells; for cytotoxicity at 24 h, 25 μg/mL: MCF7, 25 μg/mL; for cytotoxicity at 24 h, 50 μg/mL: MCF7, 50 μg/mL; for cytotoxicity at 24 h, 75 μg/mL: MCF7, 75 μg/mL
Description: as §2, §3

[9] = LDH cytotoxic activity assay, A549; type: cell-based; details: human, A549 cells; for cytotoxicity at 24 h, 25 μg/mL: A549, 25 μg/mL; for cytotoxicity at 24 h, 50 μg/mL: A549, 50 μg/mL; for cytotoxicity at 24 h, 75 μg/mL: A549, 75 μg/mL; for cytotoxicity at 24 h, 100 μg/mL: A549, 100 μg/mL
Description: as §2, §3

BSA = BSA (Bos taurus, UniProt P02769); test: BSA binding study, UV-Visible absorption; details: UV-Vis, 25 μM compound, BSA 6.5–800 μM
Excerpt: The vast majority of anticancer agents used in pharmaceutical chemistry act on functional macromolecules such as DNA and proteins. Given this well-known fact, the relationship between newly developed anticancer drug candidates and macromolecules should be studied in detail. The interaction of molecules with DNA leads to significant changes in the helical structure of DNA, which can be observed by spectrophotometric techniques. […] Also, the red or blue shift in the absorption bands of the compounds can be an indication of the stability of the compound and the DNA structure. The DNA/BSA binding properties of the new chemicals synthesized by our group were determined using a UV-Vis spectrophotometer. The interactions of these compounds with DNA were as follows. In the spectra obtained by UV-Vis studies of the compounds, a single maximum absorption peak was observed and this peak had no clear bathochromic or hypsochromic effect. […]. […] The physical interactions of our newly synthesized compounds with BSA caused the formation of the spectral bands described below. […]. […]. Kb is the binding constant related to the complex to DNA and can be calculated algebraically from the slope of the line drawn between [DNA] / (ɛa-ɛf) and [DNA]. […].
To find the interaction of the compounds with calf thymus DNA and to calculate the binding constants (Kb) UV–Visible absorption spectroscopy technique was used. A 2.5-mg calf thymus DNA was dissolved in 10.0 mL Tris–HCl buffer (20 mM Tris–HCl, 20 mM NaCl, pH 7.0) and stabile during one week in the refrigerator. […]. After dissolving the calf thymus DNA fibers in Tris–HCl buffer, the purity of this solution was checked from the absorbance ratio A260/A280. […]. These compounds were diluted with Tris–HCl buffer to obtain 25 μM concentrations. Test compounds in the solutions were incubated at room temperature for nearly 30 min before the process. The UV-visible spectral studies were performed in mixed solvent system (1/9 DMSO/Tris–HCl buffer) using eight points that the fine structure is observed for these compounds in this system by UV-visible absorption. […]. Absorption spectra were recorded by using 1-cm-path quartz cuvettes at room temperature. To evaluate the interaction of the compounds with BSA, UV–Visible absorption spectroscopy technique was also used. A 2.5 mg BSA was dissolved in 10.0 mL of Tris–HCl buffer (5 mM Tris–HCl, 10 mM NaCl at pH 7.4) and stored in the refrigerator. […]

[10] = Staphylococcus aureus, 24 h, read-out: MIC
[11] = as the column head prints, head prints FL

Chain of BSA (P02769 25-607): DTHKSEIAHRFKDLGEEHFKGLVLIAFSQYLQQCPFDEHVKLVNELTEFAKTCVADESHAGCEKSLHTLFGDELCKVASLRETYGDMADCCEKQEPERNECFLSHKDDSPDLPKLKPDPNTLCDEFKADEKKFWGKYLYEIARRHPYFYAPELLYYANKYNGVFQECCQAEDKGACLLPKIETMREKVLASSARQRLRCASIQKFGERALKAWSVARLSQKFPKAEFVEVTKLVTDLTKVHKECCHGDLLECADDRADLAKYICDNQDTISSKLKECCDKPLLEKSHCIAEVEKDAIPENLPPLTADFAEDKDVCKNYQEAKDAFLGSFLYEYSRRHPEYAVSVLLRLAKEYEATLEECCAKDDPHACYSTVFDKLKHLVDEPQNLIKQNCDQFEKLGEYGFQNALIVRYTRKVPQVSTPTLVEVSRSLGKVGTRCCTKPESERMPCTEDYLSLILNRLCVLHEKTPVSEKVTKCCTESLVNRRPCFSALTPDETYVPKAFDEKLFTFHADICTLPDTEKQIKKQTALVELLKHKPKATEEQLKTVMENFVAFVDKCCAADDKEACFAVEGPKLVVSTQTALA

| MIC [1] | MIC [2, 10] | MIC [3] | MIC [4] | MIC [5] | change of absorption on adding increasing amounts of BSA (BSA) | SMILES | cytotoxicity at 24 h, 25 μg/mL ([6]; FL) | cytotoxicity at 24 h, 50 μg/mL ([6]; FL) | cytotoxicity at 24 h, 75 μg/mL ([6]; FL) | cytotoxicity at 24 h, 100 μg/mL ([6]; FL) | cytotoxicity at 24 h, 100 μg/mL [6, 11] | cytotoxicity at 24 h, 25 μg/mL [7] | cytotoxicity at 24 h, 50 μg/mL [7] | cytotoxicity at 24 h, 75 μg/mL [7] | cytotoxicity at 24 h, 100 μg/mL [7] | cytotoxicity at 24 h, 25 μg/mL [8] | cytotoxicity at 24 h, 50 μg/mL [8] | cytotoxicity at 24 h, 75 μg/mL [8] | cytotoxicity at 24 h, 25 μg/mL [9] | cytotoxicity at 24 h, 50 μg/mL [9] | other results |
| --- | --- | --- | --- | --- | --- | --- | --- | --- | --- | --- | --- | --- | --- | --- | --- | --- | --- | --- | --- | --- | --- |
| 250 µg/mL (≈ 589 µM) | 62.5 to 125 µg/mL (≈ 147 to 294 µM) | > 1000 µg/mL | 1000 µg/mL (≈ 2360 µM) | 500 µg/mL (≈ 1180 µM) | hyperchromic activity | Cc1cccc(-c2cc(-c3ccncc3)nc(N[C@@H]3O[C@H](CO)[C@@H](O)[C@H](O)[C@H]3O)n2)c1 [Compound 6, N-[4-(3-methylphenyl)-6-pyridin-4-ylpyrimidin-2-yl]-β-D-glucopyranosylamine] | 19.1% | 27.6% | 50.9% | 63.4% | 41.9% | 10% | 15.4% | 35.9% | 41.1% | 7.22% | 12.5% | 31.8% | 27% | 32% | MIC [2]: 125 µg/mL (≈ 294 µM); cytotoxicity at 24 h, 75 μg/mL [9]: 48.1%; cytotoxicity at 24 h, 100 μg/mL [9]: 72.8% |
| 1000 µg/mL (≈ 2360 µM) | 62.5 to 125 µg/mL (≈ 147 to 294 µM) | > 1000 µg/mL | 1000 µg/mL (≈ 2360 µM) | 500 µg/mL (≈ 1180 µM) | hyperchromic activity | Cc1ccc(-c2cc(-c3ccncc3)nc(N[C@@H]3O[C@H](CO)[C@@H](O)[C@H](O)[C@H]3O)n2)cc1 [Compound 9, N-[4-(4-methylphenyl)-6-pyridin-4-ylpyrimidin-2-yl]-β-D-glucopyranosylamine] | 18.6% | 30% | 60.6% | 71% | 36.5% | 16.5% | 24.4% | 41.5% | 49.4% | 11.1% | 19.2% | 27.5% | 27.4% | 28.5% | MIC [2]: 125 µg/mL (≈ 294 µM); cytotoxicity at 24 h, 75 μg/mL [9]: 48.4%; cytotoxicity at 24 h, 100 μg/mL [9]: 63.2% |
| > 1000 µg/mL | 1000 µg/mL (≈ 1690 µM) | > 1000 µg/mL | 1000 µg/mL (≈ 1690 µM) | > 1000 µg/mL | hypochromically | CC(=O)OC[C@H]1O[C@@H](Nc2nc(-c3ccc(C)cc3)cc(-c3ccccn3)n2)[C@H](OC(C)=O)[C@@H](OC(C)=O)[C@@H]1OC(C)=O [Compound 16, 2,3,4,6-tetra-O-acetyl-N-[4-(4-methylphenyl)-6-pyridin-2-ylpyrimidin-2-yl]-β-D-glucopyranosylamine] | – | – | – | – | – | – | – | – | – | – | – | – | – | – | – |

Continued, compound first:

| SMILES | MIC [1] | MIC [2, 10] | MIC [3] | MIC [4] | MIC [5] | change of absorption on adding increasing amounts of BSA (BSA) | cytotoxicity at 24 h, 25 μg/mL ([6]; FL) | cytotoxicity at 24 h, 50 μg/mL ([6]; FL) | cytotoxicity at 24 h, 75 μg/mL ([6]; FL) | cytotoxicity at 24 h, 100 μg/mL ([6]; FL) | cytotoxicity at 24 h, 100 μg/mL [6, 11] | cytotoxicity at 24 h, 25 μg/mL [7] | cytotoxicity at 24 h, 50 μg/mL [7] | cytotoxicity at 24 h, 75 μg/mL [7] | cytotoxicity at 24 h, 100 μg/mL [7] | cytotoxicity at 24 h, 25 μg/mL [8] | cytotoxicity at 24 h, 50 μg/mL [8] | cytotoxicity at 24 h, 75 μg/mL [8] | cytotoxicity at 24 h, 25 μg/mL [9] | cytotoxicity at 24 h, 50 μg/mL [9] | other results |
| --- | --- | --- | --- | --- | --- | --- | --- | --- | --- | --- | --- | --- | --- | --- | --- | --- | --- | --- | --- | --- | --- |
| Cc1ccccc1-c1cc(-c2ccccn2)nc(N[C@@H]2O[C@H](CO)[C@@H](O)[C@H](O)[C@H]2O)n1 [Compound 1, N-[4-(2-methylphenyl)-6-pyridin-2-ylpyrimidin-2-yl]-β-D-glucopyranosylamine] | 1000 µg/mL (≈ 2360 µM) | 500 µg/mL (≈ 1180 µM) | > 1000 µg/mL | > 1000 µg/mL | 500 µg/mL (≈ 1180 µM) | – | – | – | – | – | – | – | – | – | – | – | – | – | – | – | binding constant (Kb) (calf thymus DNA (CT-DNA)): greater interest in DNA than the anticancer drugs cisplatin and 5FU |
| Cc1cccc(-c2cc(-c3ccccn3)nc(N[C@@H]3O[C@H](CO)[C@@H](O)[C@H](O)[C@H]3O)n2)c1 [Compound 4, N-[4-(3-methylphenyl)-6-pyridin-2-ylpyrimidin-2-yl]-β-D-glucopyranosylamine] | 500 µg/mL (≈ 1180 µM) | 250 µg/mL (≈ 589 µM) | > 1000 µg/mL | > 1000 µg/mL | 250 µg/mL (≈ 589 µM) | hyperchromic activity | 24.4% | 32.4% | 48.3% | 69.5% | 40.2% | 19.6% | 28.9% | 42% | 64.8% | 11.6% | 22.5% | 30% | 26% | 33.2% | cytotoxicity at 24 h, 75 μg/mL [9]: 61.7%; cytotoxicity at 24 h, 100 μg/mL [9]: 72.5% |
